Results: patent US20240336602A1 (Katholieke Universiteit Leuven, priority 2020, published 2024)

Molecular target: T1, mouse TRPM3a2 (mTRPM3) ion channel (Mus musculus, UniProt J9SQF3)
T1 construct: expressed in transfected cells; host or cells: flip-in HEK293
Assay: TRPM3 ion channel driven Ca2+ uptake, Fluo-4 AM assay (PS-stimulated, overexpressing flip-in HEK293 cells)
Format: cell-based
Settings: PS (50 μM) stimulated
Summary of the method: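 Flip-in HEK293 cells overexpressing mTRPM3α2, loaded with Fluo-4 AM, were added to wells with compound plus 50 μM pregnenolone sulfate in Ca2+-containing Krebs buffer and read immediately (ex 485/em 535 nm). Percent inhibition was scaled between PS-plus-vehicle and positive-control-inhibitor signals.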

T1 sequence (J9SQF3 1-1709 isoform J9SQF3-12): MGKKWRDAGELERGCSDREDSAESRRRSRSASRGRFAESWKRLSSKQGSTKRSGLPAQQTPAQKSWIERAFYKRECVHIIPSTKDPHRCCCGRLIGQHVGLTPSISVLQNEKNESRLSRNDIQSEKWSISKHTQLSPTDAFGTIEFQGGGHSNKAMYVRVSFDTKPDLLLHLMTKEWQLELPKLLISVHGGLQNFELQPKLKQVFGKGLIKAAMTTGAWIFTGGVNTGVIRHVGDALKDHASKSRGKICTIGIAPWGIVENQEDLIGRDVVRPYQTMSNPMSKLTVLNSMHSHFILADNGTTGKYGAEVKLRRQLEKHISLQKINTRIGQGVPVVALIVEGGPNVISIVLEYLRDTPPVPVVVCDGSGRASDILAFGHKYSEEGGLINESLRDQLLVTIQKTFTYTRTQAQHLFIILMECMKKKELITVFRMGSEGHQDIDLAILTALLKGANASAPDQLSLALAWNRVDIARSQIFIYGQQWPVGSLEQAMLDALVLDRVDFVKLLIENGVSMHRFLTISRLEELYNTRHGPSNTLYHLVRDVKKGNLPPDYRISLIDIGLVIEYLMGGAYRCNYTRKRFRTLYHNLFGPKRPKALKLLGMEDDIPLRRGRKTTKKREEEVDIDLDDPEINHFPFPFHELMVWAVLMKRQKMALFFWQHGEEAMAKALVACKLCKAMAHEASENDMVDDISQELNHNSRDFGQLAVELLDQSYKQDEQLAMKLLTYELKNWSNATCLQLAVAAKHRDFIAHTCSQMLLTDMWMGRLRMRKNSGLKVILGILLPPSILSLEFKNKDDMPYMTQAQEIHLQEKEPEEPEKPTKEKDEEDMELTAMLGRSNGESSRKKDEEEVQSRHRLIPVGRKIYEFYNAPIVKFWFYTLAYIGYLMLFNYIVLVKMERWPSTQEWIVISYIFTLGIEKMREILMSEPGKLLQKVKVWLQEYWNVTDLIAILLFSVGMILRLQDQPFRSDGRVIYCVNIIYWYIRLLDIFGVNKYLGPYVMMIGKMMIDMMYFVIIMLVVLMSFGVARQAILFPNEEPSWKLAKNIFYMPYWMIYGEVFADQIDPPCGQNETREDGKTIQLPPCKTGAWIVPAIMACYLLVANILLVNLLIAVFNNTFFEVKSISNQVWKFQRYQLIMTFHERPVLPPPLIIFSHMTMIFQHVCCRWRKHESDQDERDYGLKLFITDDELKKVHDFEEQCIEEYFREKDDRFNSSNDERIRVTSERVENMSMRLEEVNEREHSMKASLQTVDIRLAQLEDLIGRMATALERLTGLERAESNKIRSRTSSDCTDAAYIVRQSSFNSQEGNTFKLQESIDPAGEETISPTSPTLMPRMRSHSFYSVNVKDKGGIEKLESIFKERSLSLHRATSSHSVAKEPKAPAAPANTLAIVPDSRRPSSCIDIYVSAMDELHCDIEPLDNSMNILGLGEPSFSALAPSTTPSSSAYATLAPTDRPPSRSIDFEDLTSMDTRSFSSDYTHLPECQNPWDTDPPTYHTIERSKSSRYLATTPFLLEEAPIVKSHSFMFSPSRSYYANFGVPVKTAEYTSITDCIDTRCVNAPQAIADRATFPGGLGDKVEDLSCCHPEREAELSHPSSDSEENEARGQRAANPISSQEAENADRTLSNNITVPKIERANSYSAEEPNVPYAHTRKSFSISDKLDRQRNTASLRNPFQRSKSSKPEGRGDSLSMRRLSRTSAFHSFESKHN

IC50 (cpds. 600-666) | SMILES | further results
– | Cc1ncsc1COc1ccc2oc(C)c(C(=O)NCC(N)=O)c2c1 [cpd 503, N-(2-amino-2-oxoethyl)-2-methyl-5-((4-methylthiazol-5-yl)methoxy)benzofuran-3-carboxamide] | IC50 (cpds. 500-599): ≤ 1000 nM
– | Cc1ncsc1COc1ccc2oc(C)c(C(=O)NC3(CN)COC3)c2c1 [cpd 507, N-(3-(aminomethyl)oxetan-3-yl)-2-methyl-5-((4-methylthiazol-5-yl)methoxy)benzofuran-3-carboxamide] | IC50 (cpds. 500-599): 1000 to 20000 nM
– | Cc1oc2ccc(OCc3nccn3C)cc2c1C(=O)NC1(CO)COC1 [cpd 523, N-(3-(hydroxymethyl)oxetan-3-yl)-2-methyl-5-((1-methyl-1H-imidazol-2-yl)methoxy)benzofuran-3-carboxamide] | IC50 (cpds. 500-599): 1000 to 20000 nM
– | Cc1oc2ccc(OCc3nccn3C)cc2c1C(=O)NC1(C(N)=O)COC1 [cpd 578, N-(3-carbamoyloxetan-3-yl)-2-methyl-5-((1-methyl-1H-imidazol-2-yl)methoxy)benzofuran-3-carboxamide] | IC50 (cpds. 500-599): 1000 to 20000 nM
1000 to 20000 nM | Cc1ncsc1COc1ccc2oc(C)c(C(=O)NC3(CO)CCOCC3)c2c1C [cpd 603, N-(4-(hydroxymethyl)tetrahydro-2H-pyran-4-yl)-2,4-dimethyl-5-((4-methylthiazol-5-yl)methoxy)benzofuran-3-carboxamide] | –
1000 to 20000 nM | Cc1oc2ccc(OCc3ncn(C)n3)cc2c1C(=O)NC1(CO)CCOCC1 [cpd 606, N-(4-(hydroxymethyl)tetrahydro-2H-pyran-4-yl)-2-methyl-5-((1-methyl-1H-1,2,4-triazol-3-yl)methoxy)benzofuran-3-carboxamide] | –
1000 to 20000 nM | Cc1oc2ccc(OCc3cncn3C)cc2c1C(=O)NC1(CO)CCOCC1 [cpd 607, N-(4-(hydroxymethyl)tetrahydro-2H-pyran-4-yl)-2-methyl-5-((1-methyl-1H-imidazol-5-yl)methoxy)benzofuran-3-carboxamide] | –
1000 to 20000 nM | Cc1oc2ccc(OCc3cccn(C)c3=O)cc2c1C(=O)NC1(CO)CCOCC1 [cpd 609, N-(4-(hydroxymethyl)tetrahydro-2H-pyran-4-yl)-2-methyl-5-((1-methyl-2-oxo-1,2-dihydropyridin-3-yl)methoxy)benzofuran-3-carboxamide] | –
1000 to 20000 nM | Cc1oc2ccc(OCc3cccc(=O)n3C)cc2c1C(=O)NC1(CO)CCOCC1 [cpd 610, N-(4-(hydroxymethyl)tetrahydro-2H-pyran-4-yl)-2-methyl-5-((1-methyl-6-oxo-1,6-dihydropyridin-2-yl)methoxy)benzofuran-3-carboxamide] | –
1000 to 20000 nM | Cc1nccc(COc2ccc3oc(C)c(C(=O)NC4(CO)CCOCC4)c3c2)n1 [cpd 612, N-(4-(hydroxymethyl)tetrahydro-2H-pyran-4-yl)-2-methyl-5-((2-methylpyrimidin-4-yl)methoxy)benzofuran-3-carboxamide] | –
1000 to 20000 nM | Cc1coc(COc2ccc3oc(C)c(C(=O)NC4(CO)CCOCC4)c3c2)n1 [cpd 616, N-(4-(hydroxymethyl)tetrahydro-2H-pyran-4-yl)-2-methyl-5-((4-methyloxazol-2-yl)methoxy)benzofuran-3-carboxamide] | –
1000 to 20000 nM | Cc1csc(COc2ccc3oc(C)c(C(=O)NC4(CO)CCOCC4)c3c2)n1 [cpd 617, N-(4-(hydroxymethyl)tetrahydro-2H-pyran-4-yl)-2-methyl-5-((4-methylthiazol-2-yl)methoxy)benzofuran-3-carboxamide] | –
1000 to 20000 nM | Cc1cnc(COc2ccc3oc(C)c(C(=O)NC4(CO)CCOCC4)c3c2)cn1 [cpd 619, N-(4-(hydroxymethyl)tetrahydro-2H-pyran-4-yl)-2-methyl-5-((5-methylpyrazin-2-yl)methoxy)benzofuran-3-carboxamide] | –
1000 to 20000 nM | Cc1ccc(COc2ccc3oc(C)c(C(=O)NC4(CO)CCOCC4)c3c2)cn1 [cpd 622, N-(4-(hydroxymethyl)tetrahydro-2H-pyran-4-yl)-2-methyl-5-((6-methylpyridin-3-yl)methoxy)benzofuran-3-carboxamide] | –
1000 to 20000 nM | Cc1oc2ccc(OCc3ncccn3)cc2c1C(=O)NC1(CO)CCOCC1 [cpd 626, N-(4-(hydroxymethyl)tetrahydro-2H-pyran-4-yl)-2-methyl-5-(pyrimidin-2-ylmethoxy)benzofuran-3-carboxamide] | –
1000 to 20000 nM | Cc1oc2ccc(OCc3ccnc(O)c3)cc2c1C(=O)NC1(CO)CCOCC1 [cpd 628, N-(4-(hydroxymethyl)tetrahydro-2H-pyran-4-yl)-5-((2-hydroxypyridin-4-yl)methoxy)-2-methylbenzofuran-3-carboxamide] | –
1000 to 20000 nM | COc1ccc(COc2ccc3oc(C)c(C(=O)NC4(CO)CCOCC4)c3c2)cn1 [cpd 632, N-(4-(hydroxymethyl)tetrahydro-2H-pyran-4-yl)-5-((6-methoxypyridin-3-yl)methoxy)-2-methylbenzofuran-3-carboxamide] | –
1000 to 20000 nM | Cc1oc2ccc(OCc3ccc4nccn4c3)cc2c1C(=O)NC1(CO)CCOCC1 [cpd 633, N-(4-(hydroxymethyl)tetrahydro-2H-pyran-4-yl)-5-(imidazo[1,2-a]pyridin-6-ylmethoxy)-2-methylbenzofuran-3-carboxamide] | –
1000 to 20000 nM | Cc1oc2ccc(OCc3cccnc3C(F)(F)F)cc2c1C(=O)N(CCO)C1CCC1 [cpd 659, N-cyclobutyl-N-(2-hydroxyethyl)-2-methyl-5-((2-(trifluoromethyl)pyridin-3-yl)methoxy)benzofuran-3-carboxamide] | –
– | Cc1cc(COc2ccc3oc(C)c(C(=O)N[C@@H](CO)C(N)=O)c3c2)on1 [cpd 674] | IC50 (cpds. 667-751): ≤ 1000 nM
– | Cc1oc2ccc(OCc3c[nH]nc3C(F)(F)F)cc2c1C(=O)N[C@H](C(N)=O)[C@@H](C)O [cpd 685, N-((2S,3R)-1-amino-3-hydroxy-1-oxobutan-2-yl)-2-methyl-5-((3-(trifluoromethyl)-1H-pyrazol-4-yl)methoxy)benzofuran-3-carboxamide] | IC50 (cpds. 667-751): ≤ 1000 nM
– | Cc1oc2ccc(OCc3ncccc3C3CC3)cc2c1C(=O)NC1(CO)CCOCC1 [cpd 705, 5-((3-cyclopropylpyridin-2-yl)methoxy)-N-(4-(hydroxymethyl)tetrahydro-2H-pyran-4-yl)-2-methylbenzofuran-3-carboxamide] | IC50 (cpds. 667-751): 1000 to 20000 nM
